Paper PMC5498006 (Biochemistry, 2016)

Target: T1, CCL21 (CC chemokine ligand 21), truncated (Homo sapiens, UniProt O00585)
T1 sequence (O00585 24-102): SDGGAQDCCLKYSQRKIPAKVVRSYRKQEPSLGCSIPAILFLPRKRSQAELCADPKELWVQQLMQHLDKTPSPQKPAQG
Experiment: 2D 1H-15N HSQC NMR titration
Format: binding

- Kd: ~38.9 mM
SMILES: N[C@@H](Cc1ccc(OS(=O)(=O)O)cc1)C(=O)O [sY, sulfotyrosine]
